Earlier results, collected in patent publication US20260256955A1, “LIQUID COMPOSITION OF COMPOUND I, PREPARATION METHOD THEREFOR, AND APPLICATION THEREOF” (BEIJING SINOTAU PHARMACEUTICAL TECHNOLOGY CO., LTD, priority 2022, published 2026).

Conditions: animals

cardiac uptake (15 minutes post-injection): high
liver uptake (15 minutes post-injection): low
heart-to-liver ratio (after 60 minutes): favorable
Structure (SMILES): CC(C)(C)n1ncc(OCc2cccc(Cn3cc(COCCOCC[18F])nn3)c2)c(Cl)c1=O [Compound I, 2-tert-butyl-4-chloro-5-((3-((4-((2-(2-fluoro[^18F]ethoxy)ethoxy)methyl)-1H-1,2,3-triazol-1-yl)methyl)benzyl)oxy)pyridazin-3(2H)-one]
